{"source": "patent US10370401B2", "about": "“Substituted nucleosides, nucleotides and analogs thereof” (Alios BioPharma, Inc., priority 2013, dated 2019)", "key": {"[1]": {"target": "human rhinovirus 16 polymerase (HRV16pol) (Human rhinovirus 16, UniProt Q82122)", "sequence (Q82122 1694-2153 limits assumed)": "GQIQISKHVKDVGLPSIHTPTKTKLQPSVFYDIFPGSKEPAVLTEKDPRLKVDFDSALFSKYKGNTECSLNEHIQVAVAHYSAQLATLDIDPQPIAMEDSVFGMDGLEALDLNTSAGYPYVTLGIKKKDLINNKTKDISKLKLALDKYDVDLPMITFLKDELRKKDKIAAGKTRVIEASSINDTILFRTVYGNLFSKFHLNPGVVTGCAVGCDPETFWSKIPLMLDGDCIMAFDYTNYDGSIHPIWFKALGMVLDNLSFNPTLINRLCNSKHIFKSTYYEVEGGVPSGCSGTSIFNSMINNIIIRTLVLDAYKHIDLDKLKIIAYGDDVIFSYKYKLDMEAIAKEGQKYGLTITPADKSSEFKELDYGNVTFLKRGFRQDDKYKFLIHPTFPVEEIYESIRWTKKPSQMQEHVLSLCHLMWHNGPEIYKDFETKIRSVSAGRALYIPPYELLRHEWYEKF", "test": "biochemical", "details": "HRV16pol, 2.5 h at 30° C., mean of several independent experiments; read-out: IC50"}, "[2]": {"target": "dengue virus NS5 polymerase domain (DENVpol, serotype 2, New Guinea C strain) (Dengue virus type 2, UniProt P14340)", "test": "Dengue virus polymerase inhibition assay", "assay_type": "biochemical", "details": "DENVpol serotype 2, 3 hours at 30° C., mean of several independent experiments", "procedure": "The enzyme activity of dengue virus NS5 polymerase domain (DENVpol, serotype 2, New Guinea C strain) was measured as an incorporation of tritiated NMP into acid-insoluble RNA products. DENVpol assay reactions contained 100 nM recombinant enzyme, 50 nM heteropolymeric RNA, about 0.5 μCi tritiated NTP, 0.33 μM of competing cold NTP, 40 mM HEPES (pH 7.5), 3 mM dithiothreitol, and 2 mM MgCl2. Standard reactions were incubated for 3 hours at 30° C., in the presence of increasing concentration of inhibitor. At the end of the reaction, RNA was precipitated with 10% TCA, and acid-insoluble RNA products were filtered on a size exclusion 96-well plate. After washing of the plate, scintillation liquid was added and radiolabeled RNA products were detected according to standard procedures with a Trilux Topcount scintillation counter. The compound concentration at which the enzyme-catalyzed rate was reduced by 50% (IC50) was calculated by fitting the data to a non-linear regression (sigmoidal)."}, "Human rhinovirus 1B": {"system": "Human rhinovirus 1B", "test": "Picornavirus assay (CPE, CellTiter-Glo, HeLa-OHIO cells)", "assay_type": "cell-based", "details": "Rhinovirus A, 96 h"}, "subgenomic HCV replicon": {"system": "subgenomic HCV replicon", "test": "HCV replicon assay (Huh-7, luciferase reporter)", "assay_type": "cell-based", "details": "Hepatitis C virus"}, "NS5B570-Con1 (Delta-21)": {"target": "NS5B570-Con1 (Delta-21) (Hepatitis C virus genotype 1b, UniProt Q9WMX2)", "test": "biochemical", "parameters": "species or system HCV"}, "[3]": {"details": "Human rhinovirus 1B, HeLa-OHIO cells, 4 d at 33° C., read-out: EC50"}, "[4]": {"details": "Huh-7 HCV replicon cells, luciferase, 72 hours, read-out: EC50"}}, "note": "Read-outs that look alike come from different tables or passages of the source.", "data": [{"smiles": "C[C@]1(O)[C@H](n2ccc(N)nc2=O)O[C@](F)(COP(=O)(O)OP(=O)(O)OP(=O)(O)O)[C@H]1O", "note": "[compound 124]", "values": [{"measurement": "IC50", "setting": "[1]", "result": "< 1", "unit": "µM"}, {"measurement": "IC50", "setting": "[2]", "result": "< 10", "unit": "µM"}]}, {"smiles": "N#C[C@]1(CO)O[C@@H](n2ccc(N)nc2=O)C(F)(F)[C@@H]1O", "note": "[Compound 298]", "values": [{"measurement": "EC50", "setting": "Human rhinovirus 1B; [3]", "result": "1 to 10", "unit": "µM"}, {"measurement": "EC50", "setting": "subgenomic HCV replicon; [4]", "result": "10 to 100", "unit": "µM"}]}, {"smiles": "CCOc1nc(N)nc2c1ncn2[C@@H]1O[C@](F)(COP(=O)(N[C@@H](C)C(=O)OCC(C)(C)C)Oc2ccccc2)[C@@H](F)[C@@]1(C)O", "note": "(stereo partly shown) [Compound 21]", "values": [{"measurement": "EC50", "setting": "Human rhinovirus 1B", "result": "< 1", "unit": "µM"}, {"measurement": "EC50", "setting": "subgenomic HCV replicon; Huh-7, 72 h", "result": "1 to 10", "unit": "µM"}]}, {"smiles": "CCOC(=O)OCOP(=O)(OCOC(=O)OCC)OC[C@@]1(CF)O[C@@H](n2ccc(=O)n(COC(=O)C(N)C(C)C)c2=O)[C@](C)(O)[C@@H]1O", "note": "(stereo partly shown) [Compound 71]", "values": [{"measurement": "EC50", "setting": "Human rhinovirus 1B", "result": "1 to 10", "unit": "µM"}, {"measurement": "EC50", "setting": "subgenomic HCV replicon; Huh-7, 72 h", "result": "1 to 10", "unit": "µM"}]}, {"smiles": "C#C[C@@]1(O)[C@H](O)[C@@](CF)(COP(=O)(OCOC(=O)OC(C)C)OCOC(=O)OC(C)C)O[C@H]1n1cnc2c(N)ncnc21", "note": "[Compound 63]", "values": [{"measurement": "EC50", "setting": "Human rhinovirus 1B; [3]", "result": "< 1", "unit": "µM"}, {"measurement": "EC50", "setting": "subgenomic HCV replicon; [4]", "result": "1 to 10", "unit": "µM"}]}, {"smiles": "C#C[C@@]1(O)[C@H](O)[C@@](CF)(COP(=O)(O)OP(=O)(O)OP(=O)(O)O)O[C@H]1n1cnc2c(N)ncnc21", "note": "[compound 93]", "values": [{"measurement": "IC50", "setting": "[1]", "result": "< 1", "unit": "µM"}, {"measurement": "IC50", "setting": "NS5B570-Con1 (Delta-21)", "result": "10 to 100", "unit": "µM"}]}, {"smiles": "CC(C)OC(=O)[C@H](C)NP(=O)(OCCSC(=O)C(C)(C)CO)OC[C@@]1(CF)O[C@@H](n2ccc(=O)[nH]c2=O)[C@](C)(O)[C@@H]1O", "note": "(stereo partly shown) [Compound 283]", "values": [{"measurement": "EC50", "setting": "Human rhinovirus 1B; [3]", "result": "10 to 100", "unit": "µM"}, {"measurement": "EC50", "setting": "subgenomic HCV replicon; [4]", "result": "1 to 10", "unit": "µM"}]}, {"smiles": "CC(C)OC(=O)OCOP(=O)(OCOC(=O)OC(C)C)OC[C@@]1(CCl)O[C@@H](n2ccc(=O)[nH]c2=O)[C@](C)(O)[C@@H]1O", "note": "[Compound 43]", "values": [{"measurement": "EC50", "setting": "Human rhinovirus 1B; [3]", "result": "10 to 100", "unit": "µM"}, {"measurement": "EC50", "setting": "subgenomic HCV replicon; [4]", "result": "< 1", "unit": "µM"}]}, {"smiles": "C[C@]1(F)[C@H](n2ccc(N)nc2=O)O[C@](F)(COP(=O)(O)OP(=O)(O)OP(=O)(O)O)[C@H]1O", "note": "[compound 29]", "values": [{"measurement": "IC50", "setting": "[1]", "result": "< 1", "unit": "µM"}, {"measurement": "IC50", "setting": "[2]", "result": "< 1", "unit": "µM"}]}, {"smiles": "C#C[C@]1(O)[C@H](n2cnc3c(=O)[nH]c(N)nc32)O[C@](F)(COP(=O)(O)OP(=O)(O)OP(=O)(O)O)[C@H]1O", "note": "[compound 115]", "values": [{"measurement": "IC50", "setting": "[1]", "result": "< 1", "unit": "µM"}, {"measurement": "IC50", "setting": "[2]", "result": "< 1", "unit": "µM"}]}, {"smiles": "C[C@]1(O)[C@H](n2ccc(=O)[nH]c2=O)O[C@](F)(COP(=O)(O)OP(=O)(O)OP(=O)(O)O)[C@H]1O", "note": "[Compound 110]", "values": [{"measurement": "IC50", "setting": "[1]", "result": "< 10", "unit": "µM"}, {"measurement": "IC50", "setting": "[2]", "result": "< 1", "unit": "µM"}]}, {"smiles": "CC(C)C(=O)OCOP(=O)(OCOC(=O)C(C)C)OC[C@@]1(CF)O[C@@H](n2ccc(=O)[nH]c2=O)[C@](C)(O)[C@@H]1O", "note": "[Compound 70]", "values": [{"measurement": "EC50", "setting": "Human rhinovirus 1B; [3]", "result": "1 to 10", "unit": "µM"}, {"measurement": "EC50", "setting": "subgenomic HCV replicon; [4]", "result": "1 to 10", "unit": "µM"}]}, {"smiles": "C#C[C@]1(O)[C@H](n2ccc(=O)[nH]c2=O)O[C@](F)(COP(=O)(O)OP(=O)(O)OP(=O)(O)O)[C@H]1O", "note": "[compound 114]", "values": [{"measurement": "IC50", "setting": "[1]", "result": "< 1", "unit": "µM"}, {"measurement": "IC50", "setting": "[2]", "result": "< 10", "unit": "µM"}]}, {"smiles": "C[C@]1(O)[C@H](n2cnc3c(N)ncnc32)O[C@](F)(COP(=O)(O)OP(=O)(O)OP(=O)(O)O)[C@H]1O", "note": "[compound 240]", "values": [{"measurement": "IC50", "setting": "[1]", "result": "< 1", "unit": "µM"}, {"measurement": "IC50", "setting": "NS5B570-Con1 (Delta-21)", "result": "< 1", "unit": "µM"}]}, {"smiles": "Nc1ccn([C@@H]2O[C@](CF)(COP(=O)(O)OP(=O)(O)OP(=O)(O)O)[C@@H](O)[C@]2(O)CF)c(=O)n1", "note": "[compound 258]", "values": [{"measurement": "IC50", "setting": "[1]", "result": "< 1", "unit": "µM"}, {"measurement": "IC50", "setting": "NS5B570-Con1 (Delta-21)", "result": "10 to 100", "unit": "µM"}]}, {"smiles": "CC#C[C@@]1(O)[C@H](O)[C@@](CF)(COP(=O)(O)OP(=O)(O)OP(=O)(O)O)O[C@H]1n1ccc(=O)[nH]c1=O", "note": "[compound 252]", "values": [{"measurement": "IC50", "setting": "[1]", "result": "< 10", "unit": "µM"}, {"measurement": "IC50", "setting": "NS5B570-Con1 (Delta-21)", "result": "1 to 10", "unit": "µM"}]}, {"smiles": "C[C@@]1(O)[C@H](O)[C@@](CCl)(COP(=O)(O)OP(=O)(O)OP(=O)(O)O)O[C@H]1n1ccc(=O)[nH]c1=O", "note": "[compound 244]", "values": [{"measurement": "IC50", "setting": "[1]", "result": "< 10", "unit": "µM"}, {"measurement": "IC50", "setting": "NS5B570-Con1 (Delta-21)", "result": "< 1", "unit": "µM"}]}, {"smiles": "C[C@]1(Cl)[C@H](n2ccc(=O)[nH]c2=O)O[C@](F)(COP(=O)(O)OP(=O)(O)OP(=O)(O)O)[C@H]1O", "note": "[compound 149]", "values": [{"measurement": "IC50", "setting": "NS5B570-Con1 (Delta-21)", "result": "< 1", "unit": "µM"}, {"measurement": "IC50", "setting": "[2]", "result": "< 10", "unit": "µM"}]}, {"smiles": "CC(C)(CO)C(=O)SCCOP(=O)(OCCSC(=O)C(C)(C)CO)OC[C@@]1(CF)O[C@@H](n2ccc(=O)[nH]c2=O)[C@](C)(O)[C@@H]1O", "note": "[Compound 288]", "values": [{"measurement": "EC50", "setting": "Human rhinovirus 1B", "result": "10 to 100", "unit": "µM"}, {"measurement": "EC50", "setting": "subgenomic HCV replicon; Huh-7, 72 h", "result": "10 to 100", "unit": "µM"}]}, {"smiles": "O=c1ccn([C@@H]2O[C@](CF)(COP(=O)(O)OP(=O)(O)OP(=O)(O)O)[C@@H](O)[C@]2(O)CF)c(=O)[nH]1", "note": "[compound 256]", "values": [{"measurement": "IC50", "setting": "[1]", "result": "< 10", "unit": "µM"}, {"measurement": "IC50", "setting": "NS5B570-Con1 (Delta-21)", "result": "10 to 100", "unit": "µM"}]}, {"smiles": "C[C@]1(CO)O[C@@H](n2ccc(N)nc2=O)C(F)(F)[C@@H]1O", "note": "[compound 300]", "values": [{"measurement": "EC50", "setting": "Human rhinovirus 1B; [3]", "result": "< 1", "unit": "µM"}, {"measurement": "EC50", "setting": "subgenomic HCV replicon; [4]", "result": "10 to 100", "unit": "µM"}]}, {"smiles": "C[C@]1(COP(=O)(O)OP(=O)(O)OP(=O)(O)O)O[C@@H](n2ccc(N)nc2=O)C(F)(F)[C@@H]1O", "note": "[compound 277]", "values": [{"measurement": "IC50", "setting": "[1]", "result": "< 10", "unit": "µM"}, {"measurement": "IC50", "setting": "NS5B570-Con1 (Delta-21)", "result": "10 to 100", "unit": "µM"}]}, {"smiles": "CC[C@]1(O)[C@H](n2ccc(=O)[nH]c2=O)O[C@](F)(COP(=O)(O)OP(=O)(O)OP(=O)(O)O)[C@H]1O", "note": "[compound 239]", "values": [{"measurement": "IC50", "setting": "[1]", "result": "< 10", "unit": "µM"}, {"measurement": "IC50", "setting": "NS5B570-Con1 (Delta-21)", "result": "10 to 100", "unit": "µM"}]}]}
